We go through 14 molecules from PubChem BioAssay (NCI).

The structures appear in SMILES notation.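 96-well plates; 48 h exposure; 5 concentrations. Endpoints by linear interpolation between flanking doses. Not reached: highest tested concentration assigned. TGI denotes the concentration required for complete inhibition of growth.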

Among the test systems are UACC-62 melanoma; SW-620 colon; LOX IMVI melanoma; A498 renal; T-47D breast; HS 578T breast; SF-295 CNS; HCT-116 colon; MALME-3M melanoma; NCI/ADR-RES ovarian.
Common to all, as to assay: growth of human tumour cells (NCI), 48 h

For `CC(C)(C)c1ccc(-c2nnc(-c3cc(C#N)cc(-c4nnc(-c5ccc(C(C)(C)C)cc5)o4)c3)o2)cc1`, the TGI in the test on UACC-62 melanoma, with SW-620 colon, in the test on LOX IMVI melanoma, in the test with A498 renal, with T-47D breast and with HS 578T breast was over 100 µM each time. Moreover, the TGI with SF-295 CNS, in the test with HCT-116 colon, with MALME-3M melanoma and in the test on NCI/ADR-RES ovarian was over 100 µM throughout.

Consider `O=C1CSC2(CC(/C=C/c3ccccc3Br)=NN2c2cccc(S(=O)(=O)O)c2)N1c1nc2ccccc2s1` (configuration not stated), for which the TGI with UACC-62 melanoma, in the test with SW-620 colon, in the test with LOX IMVI melanoma, in the test with A498 renal, in the test with T-47D breast and in the test on HS 578T breast was over 100 µM each time. Moreover, the TGI in the test on HCT-116 colon, in the test on MALME-3M melanoma and in the test on NCI/ADR-RES ovarian was over 100 µM throughout.

In the case of `CC/C(Cl)=N\OC(=O)Nc1ccc(F)cc1F`, the TGI with UACC-62 melanoma is 32.3 µM; with SW-620 colon, 2.95 µM; in the test with LOX IMVI melanoma, 6.57 µM; in the test with A498 renal, 74.8 µM; in the test with T-47D breast, 15.5 µM; in the test with HS 578T breast, over 69.5 µM. Also, the TGI was over 60 µM in the test on SF-295 CNS, 19.1 µM with HCT-116 colon, 12 µM with MALME-3M melanoma and 44.5 µM with NCI/ADR-RES ovarian.

For `COc1ccc(C=Nc2ccc(-c3nc4ccccc4[nH]3)cc2)cc1OC`, the TGI with SW-620 colon, with LOX IMVI melanoma, in the test with A498 renal, in the test on T-47D breast, in the test on HS 578T breast and in the test on SF-295 CNS was over 100 µM in each case. The TGI with HCT-116 colon, in the test on MALME-3M melanoma and in the test on NCI/ADR-RES ovarian was over 100 µM throughout.

In the case of `O=[N+]([O-])/C=C/c1cn(CCCCCn2cc(/C=C/[N+](=O)[O-])c3ccccc32)c2ccccc12`, the TGI in the test on UACC-62 melanoma was 31.5 µM; in the test with SW-620 colon it was 2.57 µM; in the test with LOX IMVI melanoma, 1.51 µM; in the test on A498 renal, 3.86 µM; in the test with T-47D breast it was over 100 µM; with HS 578T breast, 7.99 µM. In addition, the TGI in the test with SF-295 CNS is over 43.9 µM; in the test on HCT-116 colon, 0.824 µM; in the test with MALME-3M melanoma, 5.95 µM; with NCI/ADR-RES ovarian, 35.4 µM.

For the molecule `CCOC(=O)CCCn1cc(C(=O)OC)nn1`, the TGI in the test with UACC-62 melanoma, with SW-620 colon, with LOX IMVI melanoma, in the test with T-47D breast, in the test on HS 578T breast and in the test with SF-295 CNS was over 100 µM each time. Further, the TGI in the test with HCT-116 colon, in the test on MALME-3M melanoma and with NCI/ADR-RES ovarian was over 100 µM each time.

For `CC1=C2C(=O)c3ccccc3C(=O)[C@H]2C[C@@H](N2CCCCCC2=O)O1`, the TGI is 37.4 µM in the test with UACC-62 melanoma; 33.1 µM in the test on SW-620 colon; 44.5 µM with LOX IMVI melanoma; over 100 µM with A498 renal; 42.3 µM in the test on T-47D breast; over 100 µM in the test on HS 578T breast. The values for the TGI in the test with SF-295 CNS, with MALME-3M melanoma and in the test with NCI/ADR-RES ovarian were 35.6 µM, 25.5 µM and 49.8 µM, respectively.

Take `O=c1oc2ccc(Cl)cc2cc1-c1cn2ccsc2n1`: the TGI in the test with UACC-62 melanoma, in the test with SW-620 colon, with LOX IMVI melanoma, in the test on T-47D breast, with HS 578T breast and in the test on SF-295 CNS was over 100 µM throughout. For the same molecule, the TGI with HCT-116 colon, in the test with MALME-3M melanoma and with NCI/ADR-RES ovarian was over 100 µM each time.

For `Cc1ccc(S(=O)(=O)N/N=C2\C3CC4CC(C3)C2C4)cc1` (configuration not stated), the TGI in the test on UACC-62 melanoma, in the test on SW-620 colon, in the test on LOX IMVI melanoma, in the test on T-47D breast, with HS 578T breast and in the test on SF-295 CNS was over 100 µM each time. In addition, the TGI with MALME-3M melanoma and with NCI/ADR-RES ovarian was over 100 µM in each case.

In the case of `COC(=O)c1c(OC)cc2cc3c(c(O)c2c1C)C(=O)C1(O)C(=O)C=C(OC)C(OC(=O)CC(C)N)=C1C3=O` (configuration not stated), the TGI in the test on UACC-62 melanoma is over 100 µM; with SW-620 colon it was over 100 µM; with LOX IMVI melanoma, over 100 µM; in the test with T-47D breast, over 100 µM; in the test with HS 578T breast, 96.6 µM; with SF-295 CNS, over 100 µM. The TGI in the test on HCT-116 colon and with NCI/ADR-RES ovarian was over 100 µM in each case.

On to `CCN(CC)CCN(C)CCc1ccc(Br)cc1`, for which the TGI with SW-620 colon is over 100 µM; in the test with LOX IMVI melanoma it was over 100 µM; in the test with A498 renal, 60.4 µM; in the test on T-47D breast it was over 100 µM; with HS 578T breast it was over 100 µM; with SF-295 CNS, over 100 µM. The TGI in the test on HCT-116 colon, with MALME-3M melanoma and with NCI/ADR-RES ovarian was over 100 µM in each case.

Take `CC(C)CCCC(C)[C@H]1CC[C@H]2N=C(Nc3ccccc3)CCC[C@]12C` (some centres not stated): the TGI with UACC-62 melanoma was 3.46 µM; in the test on SW-620 colon, over 100 µM; with LOX IMVI melanoma, 4.07 µM; with A498 renal it was 10.8 µM; in the test with T-47D breast it was 14.2 µM; in the test on HS 578T breast, 5.81 µM. Moreover, the TGI was 3.1 µM in the test on SF-295 CNS, 6.39 µM in the test with MALME-3M melanoma and 3.32 µM in the test with NCI/ADR-RES ovarian.

Take `COc1cc2cc(C(=O)N3CC(CCl)c4c3cc([N+](C)(C)Cc3ccc([N+](=O)[O-])n3C)c3ccccc43)[nH]c2c(OC)c1OC` (configuration not stated): the TGI in the test on UACC-62 melanoma was 3.14 µM; in the test with SW-620 colon it was over 100 µM; with LOX IMVI melanoma, 12.3 µM; in the test with T-47D breast, 38.9 µM; in the test on HS 578T breast it was 38.2 µM; with SF-295 CNS, over 38.8 µM. Further, the TGI in the test on HCT-116 colon turned out to be 6.92 µM; in the test with MALME-3M melanoma it was 25.6 µM; in the test with NCI/ADR-RES ovarian, 4.38 µM.

For the molecule `COC1=CC(=O)C2=C(C1=O)[C@H]1CC[C@]3(C)[C@@H](OC(C)=O)CC[C@H]3[C@@H]1CC2`, the TGI in the test with SW-620 colon was over 100 µM; with LOX IMVI melanoma it was 36.7 µM; in the test with A498 renal, over 100 µM; with T-47D breast, 49.4 µM; in the test on HS 578T breast, over 100 µM; in the test with SF-295 CNS, over 100 µM. The TGI is over 100 µM in the test on HCT-116 colon, 59 µM with MALME-3M melanoma and over 100 µM in the test with NCI/ADR-RES ovarian.
